Patent US4246271A, “4-Phenyl-2-thiazolyl-oxamates useful in the treatment of asthma” (priority 1978, dated 1981)
Each block holds one molecule with its values, some of them ahead of it.

What was measured:
[1] = Acute toxicity after a single oral administration in mice (Miller & Tainter); format: in vivo; conditions: mouse, in vivo, mice, mortality noted at the end of 7 days, read-out: LD50 approximate
Method: (§1) (1) Toxicology (acute toxicity after a single oral administration in mice by the method of Miller & Tainter (Proc. Soc. Exper. Biol. Med., 1944, 57, 261)).
(§2) The products are administered in a suspension of Tween 80+distilled water. The mortality is noted at the end of 7 days. The following table summarizes the results obtained: […]

mice = assay: as above; format: in vivo; conditions: 1000 mg/kg, 10 mice per lot, suspension of Tween 80 + distilled water
Method: as §1, §2

Solubilities = format: physicochemical; conditions: for Solubility in DMSO: DMSO / dimethyl sulfoxide
rats = assay: Cutaneous passive anaphylaxis test; format: in vivo; conditions: Rattus norvegicus, po; per os, 10 minutes before intravenous injection of antigen + stain; tested at 30, 5, 1 and 0.2 mg/kg, lots of 10 rats; suspension in Tween and water; read-out: ED50 (dose which reduces by one-half the leakage of the stain as compared with the controls)
Method: The results are obtained on the cutaneous passive anaphylaxis test in accordance with the method of Broeklehurst W. E. in Handbook of Experimental Immunology, Editor Weiz D. M., Blackwell Scientific Publications, Oxford and Edinborough, pages […] (1967).
(a) Prepare the antiserum on rats sensitized by antigen; inject it intradermally.
(b) Leave a waiting time of 24 to 48 hours.
(c) Administration of the product to be tested per os 10 minutes before operation (d) (intravenous simultaneously with d).
(d) Intravenous injection of the antigen+stain.
(e) Sacrifice 30 minutes afterwards and visualize the antigen-antibody reaction by the leakage of the stain due to the increase of the capillary permeability under the combined influence of histamine and SRSA.
This action is expressed as ED50, i.e., the dose which reduces by one-half the leakage of the stain as compared with the controls.
The tests were carried out in succession with 30, 5, 1 and 0.2 mg/kg on homogeneous lots of 10 rats, with due consideration of their insolubility in water. These compounds are administered in suspension in Tween™ and water.

Compound: O=C(Nc1nc(-c2ccccc2Br)cs1)C(=O)OCc1ccccc1 [Example 5, Benzyl-(4-orthobromophenyl-2-thiazolyl)-oxamate]
LD50 at 168 h [1]: > 1000 mg/kg
Mortality at end of 7th day (mice): 2

Compound: CCOC(=O)C(=O)Nc1nc(-c2ccc(Cl)cc2)cs1 [Example 2, Ethyl-(4-p-chlorophenyl-2-thiazolyl)-oxamate]
Solubility in DMSO (Solubilities): 1%
Solubility in ethanol (in words) (Solubilities; ethanol): insoluble
Solubility in methyl pyrrolidone (Solubilities): 4%
Solubility in water (Solubilities): insoluble
LD50 at 168 h [1]: > 1000 mg/kg
Mortality at end of 7th day (mice): 0

Compound: Cc1cccc(-c2csc(NC(=O)C(=O)OCc3ccccc3)n2)c1 [Example 4, Benzyl-(4-metamethylphenyl-2-thiazolyl)-oxamate]
LD50 at 168 h [1]: > 1000 mg/kg
Mortality at end of 7th day (mice): 1

Solubility in ethanol (Solubilities; ethanol): 15%
Solubility in water (Solubilities): insoluble
Compound: Nc1nc(-c2ccc(Cl)cc2)cs1 [4-parachlorophenyl-2-amino-thiazole]

Compound: CCOC(=O)C(=O)Nc1nc(-c2ccccc2)cs1 [Example 1, Ethyl-(4-phenyl-2-thiazolyl)-oxamate]
ED50 (rats): 1 mg/kg
Solubility in dimethyl acetamid (Solubilities; dimethyl acetamid): 20%
Solubility in ethanol (in words) (Solubilities; ethanol): insoluble
Solubility in methyl pyrrolidone (Solubilities): 25%
Solubility in water (Solubilities): insoluble
LD50 at 168 h [1]: > 1000 mg/kg
Mortality at end of 7th day (mice): 1

Compound: CCOC(=O)C(=O)Nc1nc(-c2ccc(OC)cc2)cs1 [Example 3, Ethyl-(4-paramethoxyphenyl-2-thiazolyl)-oxamate]
ED50 (rats): 2 mg/kg
Solubility in DMSO (Solubilities): 50%
Solubility in ethanol (in words) (Solubilities; ethanol): insoluble
Solubility in methyl pyrrolidone (Solubilities): 50%
Solubility in water (Solubilities): insoluble
LD50 at 168 h [1]: > 1000 mg/kg
Mortality at end of 7th day (mice): 1
